66 molecules from patent US8637557B2, “Aminothiazole derivative” (Taisho Pharmaceutical Co., Ltd, priority 2009, dated 2014) can be followed below.

Broadly, the IC50 is the point on the concentration scale where inhibition reaches its midpoint.

T1 sequence (P48736 whole entry): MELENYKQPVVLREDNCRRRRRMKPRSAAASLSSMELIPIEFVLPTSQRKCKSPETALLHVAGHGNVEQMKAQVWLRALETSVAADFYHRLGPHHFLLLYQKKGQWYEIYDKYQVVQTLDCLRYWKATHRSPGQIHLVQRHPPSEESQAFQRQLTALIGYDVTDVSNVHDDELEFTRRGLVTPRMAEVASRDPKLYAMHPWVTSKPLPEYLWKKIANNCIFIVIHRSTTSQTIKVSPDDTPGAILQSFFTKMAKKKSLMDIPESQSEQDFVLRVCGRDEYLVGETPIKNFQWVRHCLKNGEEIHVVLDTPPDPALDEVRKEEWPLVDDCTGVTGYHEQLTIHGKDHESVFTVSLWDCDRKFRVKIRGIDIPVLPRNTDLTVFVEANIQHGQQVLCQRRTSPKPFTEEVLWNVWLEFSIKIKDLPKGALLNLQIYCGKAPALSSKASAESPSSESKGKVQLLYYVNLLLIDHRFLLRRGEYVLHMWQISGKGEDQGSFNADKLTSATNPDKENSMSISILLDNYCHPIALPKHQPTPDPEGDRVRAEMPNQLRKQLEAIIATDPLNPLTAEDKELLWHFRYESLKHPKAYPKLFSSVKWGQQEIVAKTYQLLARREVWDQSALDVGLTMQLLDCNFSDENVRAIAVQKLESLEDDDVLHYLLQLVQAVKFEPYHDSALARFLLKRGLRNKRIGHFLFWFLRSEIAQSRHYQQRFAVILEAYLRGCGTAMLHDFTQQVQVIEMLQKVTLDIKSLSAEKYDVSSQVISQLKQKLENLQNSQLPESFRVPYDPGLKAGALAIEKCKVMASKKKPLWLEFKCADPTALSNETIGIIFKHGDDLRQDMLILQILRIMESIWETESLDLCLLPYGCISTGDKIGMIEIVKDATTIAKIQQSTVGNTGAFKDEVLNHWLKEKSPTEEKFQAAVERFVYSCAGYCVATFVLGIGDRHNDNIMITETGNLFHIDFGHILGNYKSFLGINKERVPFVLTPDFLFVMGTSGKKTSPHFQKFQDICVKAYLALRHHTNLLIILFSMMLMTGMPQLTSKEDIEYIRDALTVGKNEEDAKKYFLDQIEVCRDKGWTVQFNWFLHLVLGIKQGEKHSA

The assay has as its target T1, human PI 3-kinase p120γ (Homo sapiens, UniProt P48736).
T1 construct: purchased Millipore Corporation
Description: PI 3-kinase p120γ enzyme activity inhibition test. In kind it is biochemical. As to conditions: ATP 10.0 μM, PIP2-PS 5.0 μM, 30° C., 2 hours; read-out: PI3Kγ (IC50 value class). Here is the method: Using human PI 3-kinase p120γ (manufactured by Millipore Corporation) and a mixed micellized product (hereinafter abbreviated as PIP2-PS) of the substrate thereof, L-a-Phosphatidyl-D-myo-inositol-4,5-bisphosphate (product of Calbiochem, hereinafter abbreviated as PIP2), and L-a-Phosphatidyl-L-Serine (manufactured by Sigma, hereinafter abbreviated as PS), the compound of the present invention was examined for the inhibitory action on PI3 Kinase p120γ enzyme activity (Km=8.9 μM for ATP, Km=4.0 μM for PIP2-PS).
PIP2-PS was prepared by mixing 500 μM of PIP2 and 2.5 nM of PS and sonicating the mixture for 40 minutes while ice cooling to cause micellization. ATP (final concentration 10.0 μM), [γ-^33P] ATP (final concentration 10 μCi/ml), PIP2-PS (final concentration 5.0 μM) and DMSO solutions of the test compound in different concentrations (compound final concentration 1.0×10^−5 to 2.4×10^−12 M, DMSO final concentration 0.1%) were added to PI 3-kinase p120γ, stirred and reacted at 30° C. for 2 hours. Using Phospholipid-Coated FlashPlate Microplates, 96-Well and Phospholipid FlashPlate Coating Buffer (both manufactured by PerkinElmer Co., Ltd.), PIP2-PS and phosphorylated PIP2-PS were allowed to be adsorbed to the well wall of the plate and collected. The well was washed twice with PBS (Phosphate-Buffered Saline) and dried. The radioactivity was measured using Top Count NXT (manufactured by PerkinElmer Co., Ltd.), whereby the phosphorylated amount (a) of PIP2-PS at the time of compound addition was calculated.
The same procedure was carried out in the absence of the test compound and the phosphorylated amount (b) of PIP2-PS was calculated. Further, the same procedure was carried out in the absence of both of the substrate and the test compound, and the PIP2-PS phosphorylated amount (c) of the background was calculated.
The PI3 Kinase p120γ enzyme activity suppression rate of the compound was calculated by the following formula. Suppression rate (%)=[1−(a−c)/(b−c)]×100
More specifically, using the suppression rate by the test compound of different concentrations, the IC50 value was calculated according to the dose-dependent inhibition curve analyzed by a data analysis software Origin (Lightstone Corp.) and used as the inhibitory activity index.
As to `CC(=O)Nc1nc(C)c(-c2nc(CN3CCOCC3)no2)s1` [Example 75], the concentration for half-maximal inhibition (IC50) is 500 to 10000 nM.
`CC(=O)Nc1nc(C)c(-c2nc(C(C)(C)O)no2)s1` [Example 64]: the concentration for half-maximal inhibition (IC50) is below 100 nM.
For the molecule `CC(=O)Nc1nc(C)c(-c2nc([C@H](O)C(C)(C)C)no2)s1` [Example 69], the IC50 is below 100 nM.
The result for `COCCc1noc(-c2sc(NC(=O)NCCC(=O)OC(C)(C)C)nc2C)n1` [Example 154] reads below 100 nM.
On to `Cc1nc(NC(=O)NCCNC(=O)C(C)(C)C)sc1-c1nc(-c2cccnc2)no1` [Example 139], for which the IC50 is below 100 nM.
Regarding `Cc1nc(NC(=O)NCCCNC(C)(C)C)sc1-c1nc(-c2cccnc2)no1` [Example 148], the IC50 is below 100 nM.
`CC(=O)Nc1nc(C)c(-c2nc(CCO)no2)s1` [Example 13]: the IC50 was 100 to 500 nM.
Consider `CC(=O)Nc1nc(C)c(-c2nc(C(C)NS(C)(=O)=O)no2)s1` (stereo not drawn) [Example 81], for which the concentration for half-maximal inhibition (IC50) fell in the range of 500 to 10000 nM.
As for `CC(=O)Nc1nc(C)c(-c2nc(Cn3cccn3)no2)s1` [Example 99], the IC50 was 500 to 10000 nM.
On to `CC(=O)Nc1nc(C)c(-c2nc(CC(C)(C)S(N)(=O)=O)no2)s1` [Example 107], for which the IC50 is 100 to 500 nM.
On to `CC(=O)Nc1nc(C)c(-c2nc(CC3CC3)no2)s1` [Example 80], for which the IC50 is below 100 nM.
Turning to `Cc1nc(NC(=O)NCCCN(C)C)sc1-c1nc(-c2cccnc2)no1` [Example 127], the IC50 is below 100 nM.
`CC(=O)Nc1nc(C)c(-c2nc(CC(C)(C)C(C)=O)no2)s1` [Example 86]: the IC50 is below 100 nM.
On to `Cc1nc(NC(=O)NCCS(=O)(=O)NC(C)(C)C)sc1-c1nc(-c2cccnc2)no1` [Example 133], for which the half-inhibitory concentration (IC50) is below 100 nM.
For `Cc1nc(NC(=O)NCC(C)O)sc1-c1nc(-c2cncnc2)no1` (stereo not drawn) [Example 176], the concentration for half-maximal inhibition (IC50) is below 100 nM.
With `CC(=O)Nc1nc(C)c(-c2nc(C(=O)NCC(C)O)no2)s1` (stereo not drawn) [Example 91], the IC50 is 100 to 500 nM.
Turning to `CC(=O)Nc1nc(C)c(-c2nc(-c3cccc(CCO)c3)no2)s1` [Example 28], the half-maximal inhibitory concentration (IC50) was below 100 nM.
Turning to `CC(=O)Nc1nc(C)c(-c2nc(C3CCC3)no2)s1` [Example 26], the IC50 is below 100 nM.
Consider `CC(=O)Nc1nc(C)c(-c2nc(C(=O)NC3COC3)no2)s1` [Example 96], for which the half-maximal inhibitory concentration (IC50) was in the range of 100 to 500 nM.
In the case of `CC(=O)Nc1nc(C)c(-c2nc(CC(C)(C)CNS(C)(=O)=O)no2)s1` [Example 44], the half-inhibitory concentration (IC50) is below 100 nM.
As for `CCOC(=O)CCCC(=O)Nc1nc(C)c(-c2nc(-c3cccnc3)no2)s1` [Example 118], the IC50 was below 100 nM.
On to `Cc1nc(NC(=O)NCCC(=O)OC(C)(C)C)sc1-c1nc(-c2cncnc2)no1` [Example 141], for which the IC50 is below 100 nM.
The result for `CC(=O)Nc1nc(C)c(-c2nc(N3CC[C@@H](O)C3)no2)s1` [Example 103] reads 100 to 500 nM.
Turning to `CC(=O)CCc1noc(-c2sc(NC(C)=O)nc2C)n1` [Example 66], the concentration for half-maximal inhibition (IC50) lay within 100 to 500 nM.
For the molecule `CC(=O)Nc1nc(C)c(-c2nc(CC(C)(C)C(O)c3ccccc3)no2)s1` (stereo not drawn) [Example 100], the 50% inhibitory concentration (IC50) fell in the range of 100 to 500 nM.
In the case of `Cc1nc(NC(=O)NCCC(=O)NC(C)(C)CO)sc1-c1nc(-c2cccnc2)no1` [Example 149], the IC50 is below 100 nM.
Consider `CC(=O)Nc1nc(C)c(-c2nc(C3CCCC3)no2)s1` [Example 18], for which the IC50 was below 100 nM.
Regarding `CC(=O)Nc1nc(C)c(-c2nc(C(C)NC(=O)OC(C)(C)C)no2)s1` (stereo not drawn) [Example 74], the half-maximal inhibitory concentration (IC50) lay in the range of 500 to 10000 nM.
On to `CC(=O)Nc1nc(C)c(-c2nc(CCCO)no2)s1` [Example 33], for which the concentration for half-maximal inhibition (IC50) is 100 to 500 nM.
Take `Cc1nc(NC(=O)NCCC(=O)NC(C)(CO)CO)sc1-c1nc(CC(F)(F)F)no1` [Example 164]: the IC50 is below 100 nM.
`Cc1nc(N)sc1-c1nc(CC(C)(C)CO)no1` [Example 156]: the IC50 is below 100 nM.
Consider `CC(=O)Nc1nc(C)c(-c2nc(C3CCCOC3)no2)s1` (stereo not drawn) [Example 112], for which the IC50 was below 100 nM.
The result for `Cc1nc(NC(=O)CCNC(=O)OC(C)(C)C)sc1-c1nc(CC(C)(C)CO)no1` [Example 163] reads 100 to 500 nM; that for `Cc1nc(NC(=O)NCCC(=O)N2CCN(C(=O)OC(C)(C)C)CC2)sc1-c1nc(CC(F)(F)F)no1` [Example 168], 100 to 500 nM.
Regarding `Cc1nc(NC(=O)NCCC(=O)N2CCOCC2)sc1-c1nc(-c2cccnc2)no1` [Example 145], the IC50 was below 100 nM.
Turning to `Cc1nc(NC(=O)NCCNC(=O)OC(C)(C)C)sc1-c1nc(-c2cccnc2)no1` [Example 134], the IC50 was below 100 nM.
Take `CCOC(C)(OCC)c1noc(-c2sc(NC(C)=O)nc2C)n1` [Example 58]: the IC50 was 500 to 10000 nM.
In the case of `CC(=O)Nc1nc(C)c(-c2nc(CC(C)(C)S(=O)(=O)NC(C)(C)C)no2)s1` [Example 94] it was 100 to 500 nM.
Regarding `CC(=O)Nc1nc(C)c(-c2nc(/C=C(\C)CO)no2)s1` [Example 98], the half-inhibitory concentration (IC50) is below 100 nM.
`Cc1nc(NC(=O)NCCC(=O)OC(C)(C)C)sc1-c1nc(CC(C)(C)CO)no1` [Example 157]: the IC50 was below 100 nM.
The result for `Cc1nc(NC(=O)NCCC(=O)OCCO)sc1-c1nc(-c2cccnc2)no1` [Example 151] reads below 100 nM.
With `Cc1nc(NC(=O)OCCC(=O)OC(C)(C)C)sc1-c1nc(-c2cccnc2)no1` [Example 129, Tert-butyl-3-[({4-methyl-5-[3-(pyridin-3-yl)-1,2,4-oxadiazol-5-yl]-1,3-thiazol-2-yl}carbamoyl)oxy]propanoate], the half-inhibitory concentration (IC50) was below 100 nM.
With `Cc1nc(NC(N)=O)sc1-c1nc(-c2cccnc2)no1` [Example 124], the IC50 is below 100 nM.
As to `CC(=O)Nc1nc(C)c(-c2nc(CC(C)(C)CF)no2)s1` [Example 95], the IC50 was below 100 nM.
Regarding `Cc1nc(N)sc1-c1nc(C(C)(C)C)no1` [Example 114], the IC50 was below 100 nM.
In the case of `CC(=O)Nc1nc(C)c(-c2nc(Cc3cccc(CO)c3)no2)s1` [Example 36] it was 500 to 10000 nM; in that of `Cc1nc(NC(=O)NCCC(=O)NC(C)(CO)CO)sc1-c1nc(-c2cccnc2)no1` [Example 152], below 100 nM.
With `CC(=O)Nc1nc(C)c(-c2nc(-c3cnccn3)no2)s1` [Example 23], the IC50 is below 100 nM.
Turning to `Cc1nc(NC(=O)NCCCOC(C)(C)C)sc1-c1nc(CC(C)(C)CO)no1` [Example 160], the IC50 is below 100 nM.
Regarding `Cc1nc(NC(=O)NCCC(=O)N2CCNCC2)sc1-c1nc(CC(F)(F)F)no1` [Example 169], the half-inhibitory concentration (IC50) was below 100 nM.
As for `CC(=O)Nc1nc(C)c(-c2nc(CC(C)(C)C(C)O)no2)s1` (stereo not drawn) [Example 85], the IC50 was below 100 nM.
The result for `CC(=O)Nc1nc(C)c(-c2nc(-c3cncc(C)c3)no2)s1` [Example 15] reads below 100 nM; that for `CC(=O)Nc1nc(C)c(-c2nc(Cc3cccc(O)c3)no2)s1` [Example 49], 100 to 500 nM.
As for `Cc1nc(NC(=O)NCCC(=O)OC(C)C)sc1-c1nc(-c2cccnc2)no1` [Example 140], the IC50 was below 100 nM.
As for `C=Cc1noc(-c2sc(NC(C)=O)nc2C)n1` [Example 35], the IC50 was in the range of 100 to 500 nM.
With `CCC(O)C(C)(C)Cc1noc(-c2sc(NC(C)=O)nc2C)n1` (stereo not drawn) [Example 97], the half-inhibitory concentration (IC50) was below 100 nM.
In the case of `CCn1cnc(CCNC(=O)Nc2nc(C)c(-c3nc(-c4cccnc4)no3)s2)c1` [Example 172] it was below 100 nM; in that of `CC(=O)Nc1nc(C)c(-c2nc(CC(C)(C)C(=O)O)no2)s1` [Example 108], below 100 nM; in that of `CC(=O)Nc1nc(C)c(-c2nc(CC(C)O)no2)s1` (stereo not drawn) [Example 38], 100 to 500 nM.
In the case of `CC(=O)Nc1nc(C)c(-c2nc(CS(C)(=O)=O)no2)s1` [Example 24] it was below 100 nM.
Consider `COCCc1noc(-c2sc(NC(C)=O)nc2C)n1` [Example 22], for which the IC50 lay in the range of 100 to 500 nM.
As for `Cc1nc(NC(=O)NCCCN2CCOCC2)sc1-c1nc(-c2cccnc2)no1` [Example 142], the half-inhibitory concentration (IC50) is below 100 nM.
Regarding `CC(=O)Nc1nc(C)c(-c2nc(CC(C)(C)C(C)(C)O)no2)s1` [Example 106], the concentration for half-maximal inhibition (IC50) is below 100 nM.
Consider `CC(=O)Nc1nc(C)c(-c2nc(-c3ccc(CO)cc3)no2)s1` [Example 25], for which the half-inhibitory concentration (IC50) is below 100 nM.
The result for `CC(=O)Nc1nc(C)c(-c2nc(N3CCOCC3)no2)s1` [Example 87, N-{4-methyl-5-[3-(morpholin-4-yl)-1,2,4-oxadiazol-5-yl]-1,3-thiazol-2-yl}acetamide] reads 100 to 500 nM; that for `COCC(C)(C)Cc1noc(-c2sc(NC(C)=O)nc2C)n1` [Example 51], below 100 nM.
